Measurements from patent US20240343706A1, “PIPERIDINE-2,6-DIONE DERIVATIVES WHICH BIND TO CEREBLON, AND METHODS OF USE THEREOF” (Captor Therapeutics S.A., priority 2019, published 2024).

Key:
[1] = biological target: CRBN-DDB1 protein complex (Homo sapiens, UniProt Q96SW2); experiment: Fluorescence polarization (FP) assay, displacement of Cy5-labelled thalidomide; conditions: 25 nM CRBN-DDB1, 5 nM Cy5-labelled thalidomide, read-out: CRBN binding Ki
Outline: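 CRBN-DDB1 mixed with Cy5-thalidomide tracer and test compound, then incubated 60 min at room temperature (20-25 °C) before fluorescence polarization read-out. Ki derived from tracer displacement across a range of compound concentrations.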

[2] = biological target: BRD4-compound-CRBN/DDB1 ternary complex (Homo sapiens, UniProt O60885+Q96SW2); experiment: BRD4-compound-CRBN/DDB1 ternary complex formation, AlphaLISA homogenous assay; type: biochemical
Experimental: Biotinylated BRD4 and His-CRBN/DDB1 complex preparations were centrifugated to remove large aggregates (18000 rcf, 4° C., 5 min). Supernatant was collected and protein concentration was determined spectrophotometrically. The AlphaLISA bead-Protein mixtures were prepared: CRBN-acceptor bead (40 μg/ml Anti-6×His beads, 200 nM His-CRBN/DDB1 in PBS pH 7.4 supplemented with 0.1% Tween-20) and BRD4-donor bead (40 μg/ml Streptavidin beads, 40 nM BRD4 in PBS pH 7.4 supplemented with 0.1% Tween-20 and 2 mM DTT). Bead mixes were incubated in dark for 30 minutes at room temperature.
CRBN-acceptor bead mix and BRD4-donor bead mix were combined and dispensed into plate with compounds and DMSO only (10 μl of master mix per well). Final sample composition: 20 μg/ml Anti-6×His beads, 20 μg/ml Stretavidin beads, 100 nM His-CRBN/DDB1, 20 nM BRD4, 2% DMSO, 0.1% Tween-20, 1 mM DTT in PBS pH 7.4, +/− compound. Plate was sealed and covered to protect against light. Sample was mixed using Vibroturbulator. Subsequently, solutions in the plate was centrifugated and incubated in the dark for 30 minutes at 25° C. The plate seal was removed and sample luminescence was determined using Perkin Elmer Enspire plate reader. Readouts were assigned to certain compound concentration. Solutions without compound were utilized to determine background response (an average value) which subsequently was subtracted from raw data collected for compound mixtures.

[3] = biological target: T1, IKZF1-compound-CRBN/DDB1 ternary complex (Homo sapiens, UniProt Q96SW2); experiment: IKZF1-compound-CRBN/DDB1 ternary complex formation, AlphaLISA homogenous assay; type: biochemical; conditions: AlphaLISA, 0.1, 1 and 10 μM, normalized to Lenalidomide response
T1 construct: Strep-tagged Ikaros (IKZF1 ZF2)
Experimental: Strep-tagged Ikaros (IKZF1 ZF2) and His-CRBN/DDB1 complex preparations were centrifugated to remove large aggregates (18000 rcf, 4° C., 5 min). Supernatant was collected and protein concentration was determined spectrophotometrically. The AlphaLISA bead-Protein mixtures were prepared: CRBN-acceptor bead (40 μg/ml Anti-6×His beads, 200 nM His-CRBN/DDB1 in PBS pH 7.4 supplemented with 0.1% Tween-20) Ikaros-donor bead mix (40 μg/ml Strep-Tactin beads, 800 nM IKZF1 in PBS pH 7.4 supplemented with 0.1% Tween-20 and 2 mM DTT). Bead mixes were incubated in dark for 30 minutes at room temperature. Tested compounds were dispensed into small volume AlphaPlate (Perkin Elmer) using Echo 555 liquid handler. CRBN-acceptor bead mix and Ikaros-donor bead mix were combined and dispensed into plate with compounds and DMSO only (10 μl of master mix per well). Final sample composition: 20 μg/ml Anti-6×His beads, 20 μg/ml Strep-Tactin beads, 100 nM His-CRBN/DDB1, 400 nM IKZF1, 2% DMSO, 0.1% Tween-20, 1 mM DTT in PBS pH 7.4, +/− compound. Plate was sealed and covered to protect against light. Sample was mixed using Vibroturbulator. […] The plate seal was removed and sample luminescence was determined using Perkin Elmer Enspire plate reader. Readouts were assigned to certain compound concentration. […] The average and standard deviation (SD) were calculated for each compound concentration point. […]

Ki [1]: < 1000 nM
EC50 ([2]; 100 nM His-CRBN/DDB1, 20 nM BRD4, N = 3, read-out: TF50 (compound concentration which mediate the half of maximal response observed for Ternary Complex)): 38.8 nM
Normalized AUC to dBET1 ([2]; area under curve 1.63-2500 nM, normalized to dBET1): 1.22
Structure (SMILES): Cc1sc2c(c1C)C(c1ccc(Cl)cc1)=N[C@@H](CC(=O)NCCCCCCCCNC(=O)Cn1c(C)nc3c(C(=O)NC4CCC(=O)NC4=O)cccc31)c1nnc(C)n1-2 (stereo partly drawn) [Compound 65, 1-(2-((8-(2-((S)-4-(4-chlorophenyl)-2,3,9-trimethyl-6H-thieno[3,2-f][1,2,4]triazolo[4,3-a][1,4]diazepin-6-yl)acetamido)octyl)amino)-2-oxoethyl)-N-(2,6-dioxopiperidin-3-yl)-2-methyl-1H-benzo[d]imidazole-4-carboxamide]
IKZF1-compound-CRBN/DDB1 complex formation (in words) [3]: do not promote IKZF1-compound-CRBN/DDB1 complex formation
